The values below come from patent US20160045487A1, “COMPOSITIONS AND METHODS FOR TREATING NEUROPATHY” (CHILDEREN'S MEDICAL CENTER CORPORATION, priority 2013, published 2016).

Common to all, as to assay type: in vivo, mouse
Series [1] deals with GFAP-DN-erbB4 mice. Nature of the series: IB4 staining of C-fiber terminals in lamina II of spinal cord dorsal horn. As to conditions: cream P28-P35; n=6. The protocol: However, in the clinic, therapy would almost certainly begin after patients present with symptoms of SFN. Therefore, it was determined whether topical XIB4035 can act as a disease-modifying agent in the GFAP-DN-erbB4 neuropathy model starting after animals are clearly symptomatic (P28). […] While IB4 labeling in mutant mice was lower than wild types regardless of treatment, IB4 signal was clearly present in mutant mice treated with XIB4035 while absent in those treated with control cream (FIG. 3D; 83% of XIB4035 treated mice (n=6) with IB4+ lamina II terminals vs 0% (n=4) in control treated mice) (FIG. 3D).
Spinal cords were collected from mice anesthetized with 2.5% Avertin, immersion fixed in 4% paraformaldehyde in 0.1 M phosphate buffer (pH 7.4) for 2 hours at 4° C., and cryoprotected in 20% sucrose overnight at 4° C. Tissue was embedded in OCT, sectioned at 15 μm, and stained mounted on slides. Tissue was blocked for 30 minutes in 0.1M PB+0.3% Triton-X 100+10% normal goat serum and incubated with TrpV1 rabbit polyclonal antibody (AbCAM, 1:2000) and Alexa-488 conjugated isolectin-B4 overnight at 4° C. Sections were washed 3 times for 30 minutes in 0.1M PB+0.3% Triton-X 100+10% normal goat serum followed by incubation with goat anti-rabbit Alexa-594 (Invitrogen) 1:1000 for 1 hour at room temperature.
Spinal cord images were acquired using a Zeiss Axioscope microscope. […]

Series [2] relates to GFAP-DN-erbB4 mice. Nature of the series: Electron microscopy of sciatic nerve Remak bundles, GFAP-DN-erbB4 mice. As to the method:
(§1) As a first test, a cream containing XIB4035 (1.5 mM) was applied directly to the hind paws of GFAP-DN-erbB4 and wild type mice twice daily for a period of 4 weeks starting prior to symptom onset (P21). Mice of both genotypes were also treated with the base cream containing no drug for control. Mice were tested for responses to a noxious thermal stimulus prior to the initiation of treatment and every 7 days for the duration of the experiment.
The cream containing XIB4035 (1.5 mM, ZereneX Molecular Ltd., Manchester, UK) consisted of N-methyl-pyrrolidone (6.25%), isopropyl myristate (6.25%) and petroleum jelly (87.5%). Control cream had the same ingredients without XIB4035. Cream was applied twice daily to the hind paws of mice starting at P21 for a period of 4 weeks for prophylactic treatment of GFAP-DN-erbB4. Diabetic mice were treated twice daily for 8 weeks after streptozotocin (STZ) injection prior to onset of hyperglycemia and for another 8 weeks during neuropathy testing. Cream treatment in therapeutic studies using GFAP-DN-erbB4 mice was performed twice daily beginning after onset of SFN at P28 and either continued for 5 weeks (chronic treatment) or 1 week (acute treatment).
Tissue was prepared as in (Lacomis, supra). Briefly, mice were perfused intracardially with 2% paraformaldehyde, 2.5% gluteraldehyde and 0.03% picric acid in 0.1 M cacodylate buffer (pH 7.2). Tissue was post-fixed overnight at 4° C. and embedded in Epon. Ultrathin sections were cut, collected on cellodin-coated grids and stained using uranyl acetate and lead citrate. Photographs were taken using the Tecnai G2 Spirit BioTWIN transmission electron microscope.

The next series has as its system wild type mice. Kind of series: Hot plate thermal nociception test in wild type mice. As to conditions: cream 1.5 mM, 51° C. hotplate, P28-P42. As to the method:
Thermal nociceptive responses in wild type mice treated with either control or XIB4035 (1.5 mM) containing cream were compared using the hotplate test (51° C.) beginning at four weeks of age (p28) and continued to six weeks of age (P42).
as §1
Transgenic mouse lines used were as previously described (Lacomis et al., Muscle Nerve 26, 173-188 (2002); Comblath et al., Current opinion in Neurology 19, 446-450 (2006)). Animals were kept in the animal facility with free access to food and water. Behavioral experiments were performed in a quiet environment at the same time of day. The hot plate test was performed using a “controlled hot-plate analgesia meter” (Columbus Instruments) heated to 54° C. Paw withdrawal latency was measured as the time required for the mouse to visibly respond to the thermal stimulus, e.g. licking paws, shaking paws, or jumping off of the plate. […]

Series [3] has as its system mutant and wild type mice. Kind of series: Observation for side effects of chronic topical treatment. As to conditions: treated twice a day for 7 weeks. An excerpt: Importantly, given the potential need for chronic application of XIB4035, the question of whether XIB4035 produces side effects in both mutant and wild type mice was examined.
For series [4], the system named is diabetic mice (STZ model). Kind of series: Nerve conduction velocity in sciatic nerves of STZ diabetic mice. As to conditions: cream from hyperglycemia for 16 weeks. The protocol:
To examine NCV, normo-glycemic or diabetic mice (STZ model, as described elsewhere herein) were treated with either vehicle cream or with cream containing XIB4035 from the moment they became hyperglycemic, for 16 weeks. At the end of this period, nerve conduction velocity (NCV) was measured in sciatic nerves.
(§2) Adult female C57 Bl/6J mice were made diabetic (blood glucose >15 mmol/L) by injection of STZ (90 mg/kg i.p.) on two consecutive days, with confirmation of hyperglycemia made 7 days after STZ delivery. Paw thermal response latency of the right paw was measured every two weeks from weeks 8-16 of diabetes using a modified Hargeaves test, as described

Series [5] relates to diabetic mice (STZ model). Kind of series: Sub-epidermal neural plexus density in papillary dermis of STZ diabetic mice. As to conditions: cream from hyperglycemia for 16 weeks. As to the method:
To examine SNP, normo-glycemic or diabetic mice (STZ model) were treated with either vehicle cream of cream containing XIB4035 from the moment they became hyperglycemic, for 16 weeks. At the end of this treatment period, the density of sub-epidermal fibers in papillary dermis was measured in papillary dermis. It was thereby identified that sub-epidermal neural plexus (SNP) density was reduced in diabetic mice not administered XIB, but was preserved in diabetic mice that had received XIB4035 treatment (FIG. 10).
as §2

Where [6] appears, read: GFAP-DN-erbB4 mice, XIB4035 cream 4 weeks.

Consider `CCN(CC)CCCC(C)Nc1cc(/C=C/c2ccccc2Cl)nc2cc(Cl)ccc12` (centres unmarked) [XIB4035, N4-{7-chloro-2-[(E)-2-(2-chloro-phenyl)-vinyl]-quinolin-4-yl}-N1,N1-diethyl-pentane-1,4-diamine], for which the “treated mice with IB4+ lamina II terminals” value in the series with GFAP-DN-erbB4 mice [1] was 83%. Also, in the series with GFAP-DN-erbB4 mice [2] (setting [6]), the c-fiber area came out at 1.64 ± 0.07 µm² and the c-fibers/Remak bundle worked out at 8.40 ± 0.83. Also, the “degeneration of Remak bundles and C-fiber axons” value in the series on GFAP-DN-erbB4 mice [2] (cream 1.5 mM twice daily P21-P49, sciatic nerve EM) was “prevented the degeneration of Remak bundles and C-fiber axons”. Moreover, the thermal hyperalgesia result with wild type mice was “did not induce thermal hyperalgesia”. Besides, the “changes in appearance, food intake, skin health or other outward negative signs” value in series [3] is “no changes”. Also, in series [4], the “nerve conduction velocity (NCV) in sciatic nerves” value is reported as “not statistically different from that observed in control animals”. Further, in series [5], the “sub-epidermal neural plexus (SNP) density” value is listed as “preserved”.
